Key:
BT1765 = target: T1, BT1765 (Bacteroides thetaiotaomicron, UniProt Q8A6W1); assay: fructose release; format: biochemical; conditions: 20 mM Tris-HCl, pH 8.0, 37°C
T1 sequence (Q8A6W1 26-627): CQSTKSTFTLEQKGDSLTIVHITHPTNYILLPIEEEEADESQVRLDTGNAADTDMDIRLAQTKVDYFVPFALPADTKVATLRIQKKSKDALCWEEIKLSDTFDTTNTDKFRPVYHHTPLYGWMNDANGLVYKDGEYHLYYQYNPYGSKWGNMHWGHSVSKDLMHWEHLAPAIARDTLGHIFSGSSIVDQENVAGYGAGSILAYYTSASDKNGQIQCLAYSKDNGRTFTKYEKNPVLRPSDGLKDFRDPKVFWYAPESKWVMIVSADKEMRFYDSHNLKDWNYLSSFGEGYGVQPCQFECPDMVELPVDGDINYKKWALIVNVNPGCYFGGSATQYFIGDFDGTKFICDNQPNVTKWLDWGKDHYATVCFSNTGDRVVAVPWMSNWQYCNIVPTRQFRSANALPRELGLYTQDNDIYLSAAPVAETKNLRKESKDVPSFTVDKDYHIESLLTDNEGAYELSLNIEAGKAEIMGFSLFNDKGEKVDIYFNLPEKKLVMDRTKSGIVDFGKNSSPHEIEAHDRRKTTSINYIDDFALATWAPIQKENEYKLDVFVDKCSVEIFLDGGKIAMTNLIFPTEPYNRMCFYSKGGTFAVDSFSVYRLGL

BT1754-PD = target: T2, BT1754-PD (Bacteroides thetaiotaomicron, UniProt Q8A6X1); assay: isothermal titration calorimetry; format: binding; conditions: 20 mM Tris-HCl, pH 8.0; 1:1 stoichiometry, single site
T2 sequence (Q8A6X1 29-343): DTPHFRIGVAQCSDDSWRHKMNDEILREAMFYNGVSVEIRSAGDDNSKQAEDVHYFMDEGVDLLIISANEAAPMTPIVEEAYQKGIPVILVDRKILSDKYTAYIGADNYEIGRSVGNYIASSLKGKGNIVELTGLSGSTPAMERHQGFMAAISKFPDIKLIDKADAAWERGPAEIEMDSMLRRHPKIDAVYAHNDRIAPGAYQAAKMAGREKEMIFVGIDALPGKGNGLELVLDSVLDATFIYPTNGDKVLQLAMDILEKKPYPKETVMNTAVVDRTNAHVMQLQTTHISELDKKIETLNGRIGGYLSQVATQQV

BT3082 = target: T3, BT3082 (Bacteroides thetaiotaomicron, UniProt Q8A373); assay: fructose release; format: biochemical; conditions: 20 mM Tris-HCl, pH 8.0, 37°C
T3 sequence (Q8A373 21-548): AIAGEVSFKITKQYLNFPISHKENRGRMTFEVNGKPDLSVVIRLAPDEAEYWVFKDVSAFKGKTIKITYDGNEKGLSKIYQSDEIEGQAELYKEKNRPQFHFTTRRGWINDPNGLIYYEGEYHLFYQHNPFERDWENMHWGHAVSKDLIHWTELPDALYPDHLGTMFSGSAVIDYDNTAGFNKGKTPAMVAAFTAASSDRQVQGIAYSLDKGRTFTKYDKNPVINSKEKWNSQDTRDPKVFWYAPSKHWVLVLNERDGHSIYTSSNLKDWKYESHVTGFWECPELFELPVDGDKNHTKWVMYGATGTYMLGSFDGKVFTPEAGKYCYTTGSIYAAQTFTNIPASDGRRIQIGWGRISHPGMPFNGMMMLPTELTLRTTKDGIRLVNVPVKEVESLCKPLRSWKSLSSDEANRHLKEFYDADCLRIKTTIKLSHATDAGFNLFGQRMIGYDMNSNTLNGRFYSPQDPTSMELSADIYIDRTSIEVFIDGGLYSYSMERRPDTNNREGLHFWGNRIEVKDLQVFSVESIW

BT1759 = target: T4, BT1759 (Bacteroides thetaiotaomicron, UniProt Q8A6W7); assay: fructose release; format: biochemical; conditions: 20 mM Tris-HCl, pH 8.0, 37°C
T4 sequence (Q8A6W7 29-610): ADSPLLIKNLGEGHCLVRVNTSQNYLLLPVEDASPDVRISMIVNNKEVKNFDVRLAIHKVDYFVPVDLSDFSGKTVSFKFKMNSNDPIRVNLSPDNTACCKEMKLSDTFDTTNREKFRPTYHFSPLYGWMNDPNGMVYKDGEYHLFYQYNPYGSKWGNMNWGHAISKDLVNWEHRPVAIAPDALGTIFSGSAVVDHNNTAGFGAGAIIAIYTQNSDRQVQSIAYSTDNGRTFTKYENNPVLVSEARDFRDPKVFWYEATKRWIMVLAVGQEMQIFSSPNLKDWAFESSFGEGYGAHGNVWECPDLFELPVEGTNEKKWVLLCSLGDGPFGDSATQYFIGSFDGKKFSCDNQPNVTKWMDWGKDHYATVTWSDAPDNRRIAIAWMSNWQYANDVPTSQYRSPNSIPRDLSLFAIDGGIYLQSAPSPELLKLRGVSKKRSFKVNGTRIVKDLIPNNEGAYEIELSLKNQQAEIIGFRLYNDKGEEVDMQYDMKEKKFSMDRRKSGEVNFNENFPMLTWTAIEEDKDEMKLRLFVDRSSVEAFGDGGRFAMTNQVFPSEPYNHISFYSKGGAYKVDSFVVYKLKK

Row | Compound | KM (BT1765) | Kd (BT1754-PD) [nM] | KM (BT3082) | KM (BT1759)
1 | OC[C@H]1O[C@@](CO)(OC[C@H]2OC(O)(CO)[C@@H](O)[C@@H]2O)[C@@H](O)[C@@H]1O (some centres unmarked) [L2, levanbiose] | the enzyme is also able to efficiently degrade levanbiose (Table S2) | – | – | –
2 | OCC1(O)OC[C@@H](O)[C@@H](O)[C@@H]1O (some centres unmarked) [fructose] | – | ~2000 | – | –
3 | OC[C@H]1O[C@@](CO)(O[C@H]2O[C@H](CO)[C@@H](O)[C@H](O)[C@H]2O)[C@@H](O)[C@@H]1O [sucrose] | BT1765 prefers sucrose over any of the other oligo- or polysaccharides tested | – | BT1759 and BT3082 also cleave sucrose | BT1759 and BT3082 also cleave sucrose
